Reference: PubChem BioAssay (NCI)
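Exposure lasted 48 hours, with cells grown in 96-well plates and compounds tested at five concentrations. At the TGI there is no net growth.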

Assays:
Assay in all cases: growth of human tumour cells (NCI), 48 h
[1] = test system: CAKI-1 renal
[2] = test system: SK-MEL-28 melanoma
[3] = test system: RPMI-8226 leukemia
[4] = test system: EKVX NSCLC
[5] = test system: HS 578T breast
[6] = test system: T-47D breast
[7] = test system: KM12 colon
[8] = test system: COLO 205 colon
[9] = test system: MCF7 breast
[10] = test system: MALME-3M melanoma
[11] = test system: HCC-2998 colon
[12] = test system: CCRF-CEM leukemia
[13] = test system: NCI-H460 lung
[14] = test system: HL-60(TB) leukemia
[15] = test system: HOP-92 NSCLC
[16] = test system: OVCAR-8 ovarian
[17] = test system: HT29 colon
[18] = test system: HCT-15 colon
[19] = test system: LOX IMVI melanoma
[20] = test system: SF-539 CNS
[21] = test system: SR leukemia
[22] = test system: SF-268 CNS
[23] = test system: UACC-62 melanoma
[24] = test system: MDA-N
[25] = test system: SW-620 colon
[26] = test system: NCI-H23 lung
[27] = test system: A549 NSCLC
[28] = test system: MDA-MB-231 breast
[29] = test system: OVCAR-4 ovarian
[30] = test system: TK-10 renal
[31] = test system: SN12C renal
[32] = test system: U251 CNS
[33] = test system: BT-549 breast
[34] = test system: 786-0 renal
[35] = test system: K-562 leukemia
[36] = test system: DU-145 prostate
[37] = test system: HOP-62 NSCLC
[38] = test system: SK-OV-3 ovarian
[39] = test system: IGROV1 ovarian
[40] = test system: SNB-75 CNS
[41] = test system: MOLT-4 leukemia
[42] = test system: M14 melanoma
[43] = test system: SK-MEL-5 melanoma
[44] = test system: UACC-257 melanoma
[45] = test system: NCI/ADR-RES ovarian
[46] = test system: SNB-19 CNS
[47] = test system: PC-3 prostate
[48] = test system: OVCAR-3 ovarian
[49] = test system: UO-31 renal
[50] = test system: MDA-MB-435
[51] = test system: RXF 393 renal
[52] = test system: NCI-H522 lung
[53] = test system: HCT-116 colon
[54] = test system: ACHN renal
[55] = test system: OVCAR-5 ovarian
[56] = test system: SF-295 CNS

COc1ccccc1Nc1nc(NNC(=O)Cc2ccccc2)nc(NNC(=O)c2ccncc2)n1
TGI [1]: > 10 µM | TGI [2]: > 10 µM | TGI [3]: > 10 µM | TGI [4]: > 10 µM | TGI [5]: > 10 µM | TGI [6]: > 10 µM | TGI [7]: > 10 µM | TGI [8]: > 10 µM | TGI [9]: > 10 µM | TGI [10]: > 10 µM | TGI [11]: > 10 µM | TGI [12]: > 10 µM | TGI [13]: > 10 µM | TGI [14]: > 10 µM | TGI [15]: > 10 µM | TGI [16]: > 10 µM | TGI [17]: > 10 µM | TGI [18]: > 10 µM | TGI [19]: > 10 µM | TGI [20]: > 10 µM | TGI [21]: > 10 µM | TGI [22]: > 10 µM | TGI [23]: > 10 µM | TGI [24]: > 10 µM | TGI [25]: > 10 µM | TGI [26]: > 10 µM | TGI [27]: > 10 µM | TGI [28]: > 10 µM | TGI [29]: > 10 µM | TGI [30]: > 10 µM | TGI [31]: > 10 µM | TGI [32]: > 10 µM | TGI [33]: > 10 µM | TGI [34]: > 10 µM | TGI [35]: > 10 µM | TGI [36]: > 10 µM | TGI [37]: > 10 µM | TGI [38]: > 10 µM | TGI [39]: > 10 µM | TGI [40]: > 10 µM | TGI [41]: > 10 µM | TGI [42]: > 10 µM | TGI [43]: > 10 µM | TGI [44]: > 10 µM | TGI [45]: > 10 µM

Clc1ccc(N=c2oc3ccccc3cc2-c2nc3ccccc3[nH]2)c(Cl)c1
TGI [1]: > 100 µM | TGI [3]: > 100 µM | TGI [4]: > 100 µM | TGI [5]: 78.3 µM | TGI [6]: > 100 µM | TGI [46]: > 100 µM | TGI [7]: > 100 µM | TGI [47]: > 100 µM | TGI [10]: > 100 µM | TGI [48]: > 100 µM | TGI [12]: > 100 µM | TGI [49]: > 100 µM | TGI [14]: > 100 µM | TGI [15]: > 100 µM | TGI [16]: > 100 µM | TGI [50]: > 100 µM | TGI [51]: 41.7 µM | TGI [17]: > 100 µM | TGI [18]: > 100 µM | TGI [19]: > 100 µM | TGI [21]: > 100 µM | TGI [22]: 89.1 µM | TGI [23]: > 100 µM | TGI [52]: > 100 µM | TGI [24]: > 100 µM | TGI [25]: > 100 µM | TGI [26]: > 100 µM | TGI [29]: > 100 µM | TGI [30]: 69.9 µM | TGI [33]: > 100 µM | TGI [35]: > 100 µM | TGI [53]: > 100 µM | TGI [36]: > 100 µM | TGI [37]: 65.1 µM | TGI [38]: > 100 µM | TGI [54]: > 100 µM | TGI [55]: > 100 µM | TGI [39]: > 100 µM | TGI [56]: > 100 µM | TGI [41]: > 100 µM | TGI [42]: > 100 µM | TGI [44]: > 100 µM | TGI [45]: > 100 µM
